Values of other authors as cited in patent publication EP1358311B1, “CLEANING COMPOSITIONS” (Unilever N.V., priority 2001, dated 2002).

Settings: for Water Solubility (g/100g): at 20°C, other common materials, listed by contrast

Compound	Water Solubility (g/100g)	Water Solubility (grams/100 grams water) (saturated solution in 100 grams of deionised water at 20°C, highly water-soluble materials)
O=BO[O-].[Na+] [Sodium perborate anhydrous]	3.7	–
O=P(O)(O)OP(=O)(O)OP(=O)(O)O [Sodium tripolyphosphate anhydrous]	15	–
NC(N)=O [Urea]	–	>100
